Source: US20230024302A1, “2,3,5-TRISUBSTITUTED PYRAZOLO[1,5-A]PYRIMIDINE COMPOUNDS” (Arcus Biosciences, Inc., priority 2019, published 2023)
Read-outs that look alike come from different tables or passages of the source.

What was measured:
PI3Kγ (p120γ) = biological target: T1, PI3Kγ (p120γ) (Homo sapiens, UniProt P48736); assay: Inhibition of PI3K kinase activity (ADP Glo), PI3Kγ; details: read-out: biochemical potency (PI3Kγ IC50)
T1 construct: purchased Promega V1761
In short: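 Recombinant p120γ (8 nM, 2× stock) was preincubated with compound for 1 h at rt in HEPES pH 7.4, NaCl, MgCl2 and 0.05% BSA. Reaction was started with PIP2 (0.1 mg/ml, 2×) and ATP (50 μM, 2×) and ran 60 min at rt. ADP formed was read by ADP-Glo luminescence, and IC50 came from a 4-parameter fit.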

PI3Kγ = biological target: T2, PI3Kγ (Homo sapiens, UniProt P48736); assay: PI3Kγ cellular assay in THP-1 cells (AKT pS473 AlphaLISA); format: cell-based
T2 construct: host or cells: THP-1
T2 sequence (P48736 whole entry): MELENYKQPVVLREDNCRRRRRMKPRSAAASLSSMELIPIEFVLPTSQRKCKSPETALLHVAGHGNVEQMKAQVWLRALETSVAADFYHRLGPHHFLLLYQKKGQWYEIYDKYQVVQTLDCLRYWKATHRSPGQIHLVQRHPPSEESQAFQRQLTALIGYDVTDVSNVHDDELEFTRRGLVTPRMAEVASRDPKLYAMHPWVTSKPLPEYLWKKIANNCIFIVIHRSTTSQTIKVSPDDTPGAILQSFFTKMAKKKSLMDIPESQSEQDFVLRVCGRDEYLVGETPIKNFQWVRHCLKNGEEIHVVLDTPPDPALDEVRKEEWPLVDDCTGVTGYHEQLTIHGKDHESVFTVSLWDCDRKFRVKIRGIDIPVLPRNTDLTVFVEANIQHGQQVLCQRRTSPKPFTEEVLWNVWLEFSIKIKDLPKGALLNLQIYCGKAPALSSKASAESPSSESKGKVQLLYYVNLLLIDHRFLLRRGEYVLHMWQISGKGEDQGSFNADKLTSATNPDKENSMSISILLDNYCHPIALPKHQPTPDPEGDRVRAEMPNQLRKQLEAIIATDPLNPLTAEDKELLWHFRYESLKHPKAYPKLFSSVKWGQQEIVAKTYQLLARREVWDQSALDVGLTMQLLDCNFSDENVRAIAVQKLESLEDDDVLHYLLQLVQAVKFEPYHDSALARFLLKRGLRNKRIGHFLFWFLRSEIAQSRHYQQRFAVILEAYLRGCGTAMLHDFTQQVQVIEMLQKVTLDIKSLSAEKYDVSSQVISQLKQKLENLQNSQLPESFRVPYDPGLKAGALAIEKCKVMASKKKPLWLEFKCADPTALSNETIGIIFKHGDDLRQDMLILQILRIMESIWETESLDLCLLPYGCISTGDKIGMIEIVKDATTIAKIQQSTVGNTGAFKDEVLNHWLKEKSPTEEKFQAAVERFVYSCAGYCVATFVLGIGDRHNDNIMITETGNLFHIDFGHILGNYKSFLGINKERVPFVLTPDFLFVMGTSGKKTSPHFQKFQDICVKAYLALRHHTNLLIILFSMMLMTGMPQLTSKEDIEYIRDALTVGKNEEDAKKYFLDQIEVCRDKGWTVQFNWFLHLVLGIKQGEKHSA
In short: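 Serum-starved THP-1 cells (1.8×10^5/well, serum-free DMEM) treated with compounds from 4 nM to 30 μM in 2% DMSO, then stimulated and lysed.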

[1] = Table 3, rhMCP-1 stimulated AKT pS473, read-out: cellular potency (PI3Kγ IC50)
[2] = AKT pS473, read-out: cellular potency (PI3Kγ IC50)

T1 sequence (P48736 whole entry): as above

SMILES | IC50 (PI3Kγ (p120γ); Table 3, p120γ) | IC50 (PI3Kγ; [1]) | IC50 (PI3Kγ (p120γ)) | IC50 (PI3Kγ; [2])
C[C@@H](O)CCNC(=O)c1c(N)nn2ccc(-c3cc4c(c(C(F)(F)F)c3)C(=O)N([C@@H](C)C3CC3)C4)nc12 [Example 341] | < 100 nM | 100 to 1000 nM | – | –
C[C@@H](C1CC1)N1Cc2cc(-c3ccn4nc(N)c(C(=O)NC5(CO)CC5)c4n3)cc(C(F)(F)F)c2C1=O [Example 342] | < 100 nM | 100 to 1000 nM | – | –
CC[C@H](C)NC(=O)c1c(N)nn2ccc(-c3cc4c(c(C(F)(F)F)c3)C(=O)N([C@@H](C)C3CC3)C4)nc12 [Example 343] | < 100 nM | 100 to 1000 nM | – | –
C[C@@H](C1CC1)N1Cc2cc(-c3ccn4nc(N)c(C(=O)NC[C@@H](O)CO)c4n3)cc(C(F)(F)F)c2C1=O [Example 344] | < 100 nM | 100 to 1000 nM | – | –
C[C@@H](C1CC1)N1Cc2cc(-c3ccn4nc(N)c(C(=O)N[C@H]5CC[C@@](O)(C(F)(F)F)CC5)c4n3)cc(C(F)(F)F)c2C1=O [Example 345] | < 100 nM | 100 to 1000 nM | – | –
C[C@H](O)CCNC(=O)c1c(N)nn2ccc(-c3cc4c(c(C(F)(F)F)c3)C(=O)N([C@@H](C)C3CC3)C4)nc12 [Example 346] | < 100 nM | 100 to 1000 nM | – | –
C[C@@H](C1CC1)N1Cc2cc(-c3ccn4nc(N)c(C(=O)NC[C@H](O)CO)c4n3)cc(C(F)(F)F)c2C1=O [Example 348] | < 100 nM | 100 to 1000 nM | – | –
C[C@@H](C1CC1)N1Cc2cc(-c3ccn4nc(N)c(C(=O)Nc5ccnc(C#N)c5)c4n3)cc(C(F)(F)F)c2C1=O [Example 350] | < 100 nM | 100 to 1000 nM | – | –
C[C@@H](C1CC1)N1Cc2cc(-c3ccn4nc(N)c(C(=O)Nc5cncc(F)c5)c4n3)cc(C(F)(F)F)c2C1=O [Example 351] | < 100 nM | 100 to 1000 nM | – | –
C[C@@H](C1CC1)N1Cc2cc(-c3ccn4nc(N)c(C(=O)NCCNS(C)(=O)=O)c4n3)cc(C(F)(F)F)c2C1=O [Example 352] | < 100 nM | 100 to 1000 nM | – | –
C[C@@H](C1CC1)N1Cc2cc(-c3ccn4nc(N)c(C(=O)Nc5ccc(CC(F)(F)F)nc5)c4n3)cc(C(F)(F)F)c2C1=O [Example 354] | < 100 nM | 100 to 1000 nM | – | –
COc1cncc(NC(=O)c2c(N)nn3ccc(-c4cc5c(c(C(F)(F)F)c4)C(=O)N([C@@H](C)C4CC4)C5)nc23)c1 [Example 355] | < 100 nM | 100 to 1000 nM | – | –
C[C@@H](C1CC1)N1Cc2cc(-c3ccn4nc(N)c(C(=O)N[C@H]5CNC[C@H]5O)c4n3)cc(C(F)(F)F)c2C1=O [Example 357] | < 100 nM | > 1000 nM | – | –
C[C@@H](C1CC1)N1Cc2cc(-c3ccn4nc(N)c(C(=O)N[C@@H](CO)C(F)(F)F)c4n3)cc(C(F)(F)F)c2C1=O [Example 361] | < 100 nM | 100 to 1000 nM | – | –
C[C@@H](C1CC1)N1Cc2cc(-c3ccn4nc(N)c(C(=O)Nc5ccccc5)c4n3)cc(C(F)(F)F)c2C1=O [Example 363] | < 100 nM | > 1000 nM | – | –
COCC(NC(=O)c1c(N)nn2ccc(-c3cc4c(c(C(F)(F)F)c3)C(=O)N([C@@H](C)C3CC3)C4)nc12)C(C)C (stereo partly shown) [Example 364] | < 100 nM | 100 to 1000 nM | – | –
C[C@@H](C1CC1)N1Cc2cc(-c3ccn4nc(N)c(C(=O)NC5CC5c5ccccc5)c4n3)cc(C(F)(F)F)c2C1=O (stereo partly shown) [Example 365] | < 100 nM | 100 to 1000 nM | – | –
CC(CO)NC(=O)c1c(N)nn2ccc(-c3cc(F)c4c(c3)CN([C@@H](C)C3CC3)C4=O)nc12 (stereo partly shown) [Example 369] | – | – | < 100 nM | 100 to 1000 nM
C[C@@H](C1CC1)N1Cc2cc(-c3ccn4nc(N)c(C(=O)Nc5ccc(=O)[nH]c5)c4n3)cc(NS(C)(=O)=O)c2C1=O [Example 371] | – | – | < 100 nM | 100 to 1000 nM
C[C@@H](C1CC1)N1Cc2cc(-c3ccn4nc(N)c(C(=O)N[C@H]5CCNC5=O)c4n3)cc(NS(C)(=O)=O)c2C1=O [Example 372] | – | – | < 100 nM | 100 to 1000 nM
C[C@@H](C1CC1)N1Cc2cc(-c3ccn4nc(N)c(C(=O)NC(C)(C)C(N)=O)c4n3)cc(NS(C)(=O)=O)c2C1=O [Example 373] | – | – | < 100 nM | 100 to 1000 nM
C[C@@H](C1CC1)N1Cc2cc(-c3ccn4nc(N)c(C(=O)N[C@H]5CNC(=O)C5)c4n3)cc(NS(C)(=O)=O)c2C1=O [Example 374] | – | – | < 100 nM | 100 to 1000 nM
COC(=O)c1cc(NC(=O)c2c(N)nn3ccc(-c4cc5c(c(NS(C)(=O)=O)c4)C(=O)N([C@@H](C)C4CC4)C5)nc23)ccn1 [Example 375] | – | – | < 100 nM | 100 to 1000 nM
C[C@@H](C1CC1)N1Cc2cc(-c3ccn4nc(N)c(C(=O)N[C@@H](CO)C(F)(F)F)c4n3)cc(NS(C)(=O)=O)c2C1=O [Example 376] | – | – | < 100 nM | 100 to 1000 nM
C[C@@H](C1CC1)N1Cc2cc(-c3ccn4nc(N)c(C(=O)NC5C6CC7CC5CC(O)(C7)C6)c4n3)cc(NS(C)(=O)=O)c2C1=O (stereo partly shown) [Example 377] | – | – | < 100 nM | < 100 nM

The remaining lines, values ahead:

IC50 (PI3Kγ (p120γ); Table 3, p120γ) | IC50 (PI3Kγ; [1]) | IC50 (PI3Kγ (p120γ)) | IC50 (PI3Kγ; [2]) | SMILES
< 100 nM | 100 to 1000 nM | – | – | Nc1nn2ccc(-c3cc4c(c(C(F)(F)F)c3)C(=O)N([C@@H](CO)C3CC3)C4)nc2c1C(=O)NC1CC1 [Example 340]
< 100 nM | 100 to 1000 nM | – | – | C[C@@H](C1CC1)N1Cc2cc(-c3ccn4nc(N)c(C(=O)NC5CCS(=O)(=O)CC5)c4n3)cc(C(F)(F)F)c2C1=O [Example 347]
< 100 nM | 100 to 1000 nM | – | – | C[C@@H](C1CC1)N1Cc2cc(-c3ccn4nc(N)c(C(=O)NC5CC5)c4n3)cc(C(F)(F)F)c2C1=O [Example 349]
< 100 nM | 100 to 1000 nM | – | – | C[C@@H](C1CC1)N1Cc2cc(-c3ccn4nc(N)c(C(=O)N[C@@H](CO)C5CC5)c4n3)cc(C(F)(F)F)c2C1=O [Example 353]
< 100 nM | 100 to 1000 nM | – | – | C[C@@H](C1CC1)N1Cc2cc(-c3ccn4nc(N)c(C(=O)N[C@H]5CCCNC5)c4n3)cc(C(F)(F)F)c2C1=O [Example 356]
< 100 nM | 100 to 1000 nM | – | – | C[C@@H](C1CC1)N1Cc2cc(-c3ccn4nc(N)c(C(=O)N[C@@H]5CCC[C@H](N)C5)c4n3)cc(C(F)(F)F)c2C1=O [Example 358]
< 100 nM | > 1000 nM | – | – | C[C@@H](C1CC1)N1Cc2cc(-c3ccn4nc(N)c(C(=O)N[C@H]5CNC[C@@H]5O)c4n3)cc(C(F)(F)F)c2C1=O [Example 359]
< 100 nM | > 1000 nM | – | – | C[C@@H](C1CC1)N1Cc2cc(-c3ccn4nc(N)c(C(=O)N[C@@H]5CNC[C@H]5O)c4n3)cc(C(F)(F)F)c2C1=O [Example 360]
< 100 nM | 100 to 1000 nM | – | – | C[C@@H](C1CC1)N1Cc2cc(-c3ccn4nc(N)c(C(=O)N[C@@H]5CCC[C@H](N(C)C)C5)c4n3)cc(C(F)(F)F)c2C1=O [Example 362]
< 100 nM | > 1000 nM | – | – | C[C@@H](C1CC1)N1Cc2cc(-c3ccn4nc(N)c(C(=O)N[C@H]5CCC[C@@H](N)C5)c4n3)cc(C(F)(F)F)c2C1=O [Example 366]
< 100 nM | > 1000 nM | – | – | C[C@@H](C1CC1)N1Cc2cc(-c3ccn4nc(N)c(C(=O)N[C@H]5CCC[C@H](N)C5)c4n3)cc(C(F)(F)F)c2C1=O [Example 367]
< 100 nM | 100 to 1000 nM | – | – | C[C@@H](C1CC1)N1Cc2cc(-c3ccn4nc(N)c(C(=O)N[C@H]5CC[C@H](N)CC5)c4n3)cc(C(F)(F)F)c2C1=O [Example 368]
– | – | < 100 nM | 100 to 1000 nM | C[C@@H](C1CC1)N1Cc2cc(-c3ccn4nc(N)c(C(=O)NC5CC5)c4n3)cc(F)c2C1=O [Example 370]
